Read-outs that look alike come from different tables or passages of the source.
Assays:
[1] = system: cochlear hair cells (mouse cochlear explants); format: cell-based; settings: for number of viable hair cells: untreated explants 17-52
Description: In some embodiments, an in vitro method is employed. An illustrative assay uses an aminoglycoside-induced model (using gentamycin) of hair cell death using cochlear explants. In brief, the cochleae are collected from test animal, e.g., mice. All cochleae are combined in the same dissection maintenance bath and plated as an individual sample. The following morning, high magnification digital images of cochlea are taken and cochlear explant is assigned to groups. A desired number of explants will be used for further gentamicin treatment. Test article and positive control article are dosed ˜6 hours either prior, together with, or following to gentamicin for a duration of up to 3 days. If the culture medium is replaced (e.g. when gentamicin is added/removed), the test or positive control article will be re-administered. The cochlea are cultured and observed for health and survival. At the end of the culture cochlear explants are bathed with buffer and processed for cochleogram. Following the fixation, all the cochlear explants undergo immunofluorescent staining with anti-Myosin VIIa and Phalloidin in order to specifically label the hair cells. The explants are then mounted on microscope slides, and imaged utilizing a confocal microscope using the same laser power settings for all samples. Cochlear fragment images are then divided into 20% fragments from the apex to the base. MyosinVIIa light intensity is quantified in each fragment and compared among groups. Image analysis is performed using an imaging platform, e.g., a Fiji image analysis platform. Explants are scanned using confocal microscope with filters for 488 nm and 594 nm wave lengths. Scanning is performed using the same laser power through the entire imaging for proper light intensity calculation. For analysis, cochlea can be divided in fragment of X %. Intensity of light coming from MyoVii is quantified in each fragment and compared among groups.
Mouse cochlear explants were treated with “ORI-069” a small molecule inhibitor of DLK and LZK. ORI-069 is 2-Amino-N-[(2S)-butan-2-yl]-7-(1-{2-methyl-1-[6-(trifluoromethyl)pyridin-3-yl]propyl}-1H-pyrazol-4-yl)[1,2,4]triazolo[1,5-ca]pyridine-5-carboxamide (stereoisomers 2, eutomer).
Animals were euthanized in accordance with American Veterinary Medical Association guidelines and cochleae were collected. All cochleae from each group were combined in the same dissection maintenance bath and plated as a group.
At the end of the culture period, the cochlear explants were bathed with 10% neutral buffered formalin (NBF) and processed for hair cell counting. Digital images of the cultures were collected before fixation.
Following fixation, all cochlear explants underwent immunofluorescent staining with anti-Myosin VIIa to specifically label the hair cells. The explants were mounted on microscope slides, then imaged utilizing a confocal microscope: 20× for full scan and with 63× oil, zoom 2.25, 4 zones along the length of the cochlea: one from 50-200 μm for each extremity, one in the 33% tile and one in the 66% tile. Detailed scanning was performed using 488 nm and 594 nm filters.
A blind counting of all hair cells (OHC & IHC undiscriminated) was performed on 4 to 6 zones of each explant (fragments 1, 2, 3, 4, 5 and 6) through the entire z stack generated. Counting and fragment length measure was performed by 3 different individuals. Only cells without nucleus aberration, with good staining, integrity, and well delimited cell outline were considered for counting. Cell density was determined by reporting each counting to the length of the fragment. Image analysis was performed using Fiji image analysis platform, a distribution of ImageJ.

HC survival and hearing = settings: literature (Ylikoski 2002; Pirvola 2000); cited from earlier work

Compound: CCSCc1ccc2c(c1)c1c3c(c4c5cc(CSCC)ccc5n5c4c1n2[C@H]1C[C@](O)(C(=O)OC)[C@]5(C)O1)CNC3=O [CEP-1347]
- level of hair cells compared to gentamycin treated explants ([1]; 0.5 μM test article + gentamycin 50 μM): same low level of hair cells as the gentamycin treated explants
- protective effect ([1]; positive control, 0.5 μM + gentamycin 50 μM): did not show a protective effect
- HC survival and hearing in multiple animal models (HC survival and hearing): increase HC survival and preserve hearing

Compound: CC[C@H](C)NC(=O)c1cc(-c2cnn(C(c3ccc(C(F)(F)F)nc3)C(C)C)c2)cc2nc(N)nn12 (stereo partly drawn) [ORI-069, 2-Amino-N-[(2S)-butan-2-yl]-7-(1-{2-methyl-1-[6-(trifluoromethyl)pyridin-3-yl]propyl}-1H-pyrazol-4-yl)[1,2,4]triazolo[1,5-ca]pyridine-5-carboxamide]
- number of hair cells compared to gentamycin treated explants ([1]; 5 μM test article + gentamycin 50 μM): higher compared to gentamycin treated explants
- number of viable hair cells ([1]; gentamycin 50 μM (16 h) treated explants co-administered with 0.5 μM test article, 3 days): 0-20 hair cells/fragment
- number of viable hair cells ([1]; gentamycin 50 μM (16 h) treated explants co-administered with 5 μM test article, 3 days): 0-32 hair cells/fragment
- protection of explant cultures (3-D Z-stack reconstructions, FIG. 2) ([1]; gentamycin 50 μM treated explants, concentration not given): protected explant cultures

Compound: gentamycin
- number of viable hair cells ([1]; gentamycin 50 μM alone, single 16 h): 0-14 hair cells/fragment

Source: patent US20250041451A1, “GENE THERAPY FOR HEARING LOSS” (Perceive Biotherapeutics, Inc., priority 2021, published 2025)
